Patent publication US20230181719A1, “NGR CONJUGATES AND USES THEREOF” (OSPEDALE SAN RAFFAELE S.R.L., priority 2020, published 2023)
Positions of bridges follow the written chain, without caps; N, C: chain ends. Residues, ends and D or L forms follow the SMILES beside them.

Columns and labels:
[1] = molecular target: T1, CD13 (aminopeptidase N) (Homo sapiens, UniProt P15144); test: CD13 enzyme kinetics inhibition assay (L-alanine p-nitroanilide substrate); assay type: biochemical; settings: in different experimental conditions
T1 construct: histidine tag
Excerpt: FIG. 10. The peptide SCNGRCGVRY (SEQ ID NO: 3) inhibits CD13 enzymatic activity more efficiently than CNGRCGVRY (SEQ ID NO:4) and acetylated-CNGRCGVRY. A) Steady state kinetic analysis of CD13 in the presence of various amounts of L-alanine p-nitroanilide substrate and SCNGRCGVRY (SEQ ID NO: 3), CNGRCGVRY (SEQ ID NO:4), or acetylated-CNGRCGVRY (ac-CNGRCGVRY) (SEQ ID NO:42). A representative plot of 3-4 independent experiments, showing the initial velocity (V0) versus substrate concentration (mean ± SE of four technical replicates), is shown. The assays were performed with recombinant human histidine-tagged CD13 (200-300 ng/ml) in 60 mM potassium phosphate buffer, pH 7.4, at room temperature. The kinetic of p-nitroanilide formation was monitored spectrophotometrically (A405 nm) for 5-10 min. The inhibitory constant (Ki) reported in each plot is the result of the 3-4 independent experiments (mean ± SE). B) Double reciprocal plots of the experiments reported in panel A.
To rule out the possibility that the addition of the serine residue to the N-terminus of NGR-TNF abrogates or reduces its affinity for CD13 inventors performed enzyme kinetics inhibition assays with CD13 (aminopeptidase N) and SCNGRCGVRY (SEQ ID NO: 3), CNGRCGVRY (SEQ ID NO:4) or acetyl-CNGRCGVRY (corresponding to the N-terminal region of human S-NGR-TNF and NGR-TNF).

[2] = molecular target: α5β1 (Homo sapiens, UniProt P05556+P08648); test: Competitive binding of acetyl-CisoDGRCG/streptavidin-peroxidase to integrin-coated microtiterplates; settings: mean ± SE
Excerpt: (§1) To assess whether the isoDGR derivative of S-NGR-TNF and NGR-TNF targeting domains can recognize integrins with similar affinities inventors then analysed the binding of SCisoDGRCGVRY (SEQ ID NO: 17), CisoDGRCGVRY and acetyl-CisoDGRCGVRY to αvβ3, αvβ5, αvβ6 αvβ8 and α5β1 integrins using a competitive binding assay previously described (Curnis et al. 2010). […] As expected […] (SEQ ID NO: 3) and […] […] Considering that human NGR-TNF contains acetylated and non-acetylated forms and that both CNGRC (SEQ ID NO:5) and acetyl-CNGRC can undergo deamidation (Curnis et al. 2010), inventors can conclude that the isoDGR derivative of S-NGR-TNF, if formed, behave in a manner similar to those of the isoDGR derivatives of NGR-TNF in terms of integrin recognition.

[3] = molecular target: αvβ3 (Homo sapiens, UniProt P05106+P06756); test: as above
Excerpt: as §1

[4] = molecular target: αvβ5 (Homo sapiens, UniProt P06756+P18084); test: as above; settings: mean ± SE
Excerpt: as §1

[5] = molecular target: αvβ6 (Homo sapiens, UniProt P06756+P18564); test: as above; settings: mean ± SE
Excerpt: as §1

[6] = molecular target: αvβ8 (Homo sapiens, UniProt P06756+P26012); test: as above; settings: mean ± SE
Excerpt: as §1

[7] = Peptide deamidation stability upon incubation at 37° C., by mass spectrometry; assay type: physicochemical; settings: after 32 h at 37° C. in PBS, pH 7.4
Method: FIG. 11. The peptide SCNGRCGVRY (SEQ ID NO: 3) has a lower propensity to deamidate than CNGRCGVRY (SEQ ID NO:4) in a physiological buffer at […], but not in ammonium bicarbonate buffer at pH 8.5. A and B) MS analysis of SCNGRCGVRY (SEQ ID NO: 3) and CNGRCGVRY (SEQ ID NO:4) after incubation at 37° C. for the indicated time in 50 mM sodium phosphate buffer, pH 7.4 (PBS) or 0.1 M ammonium bicarbonate buffer, pH 8.5 (Ambic). The values +0, + 1, -17 reported in the plot correspond to the difference between the observed and the expected molecular mass of peptides expressed in daltons. MS analysis was performed using the LTQ-Orbitrap mass spectrometer (Thermo Scientific).
To assess whether the addition of the serine residue to CNGRCG (SEQ ID NO:1) might affect its deamidation propensity inventors synthetized the SCNGRCGVRY (SEQ ID NO: 3) and CNGRCGVRY (SEQ ID NO:4) peptides and studied their stability upon incubation at 37° C. in PBS, pH 7.4, by mass spectrometry.
A similar experiment was then performed with peptides in 0.1 M ammonium bicarbonate, pH 8.5, a condition known to force Asn deamidation (Curnis et al. 2006). […] Furthermore, the succinimide-derivative of S-NGR-TNF, when formed, is more prone to hydrolysis.

With `CC(C)[C@H](NC(=O)CNC(=O)[C@@H]1CSSC[C@H](NC(=O)[C@@H](N)CO)C(=O)N[C@@H](CC(N)=O)C(=O)NCC(=O)N[C@@H](CCCNC(=N)N)C(=O)N1)C(=O)N[C@@H](CCCNC(=N)N)C(=O)N[C@@H](Cc1ccc(O)cc1)C(=O)O` [SCNGRCGVRY, SCNGRCGVRY (SEQ ID NO: 3)] (H-SCNGRCGVRY-OH; disulfide 2-6; N-terminus and C-terminus assumed) as the molecule, how does the “Ki value for CD13 lower than that of CNGRCGVRY” value [1] read?
The value was 3-5 fold.

And the Ki [2]?
Its Ki is greater than 10 µM.

What about the Ki ([3]; mean ± SE) of the same molecule?
The Ki was greater than 10 µM.

And the affinity for integrins ([3]; αvβ3, αvβ5, αvβ6, αvβ8 and α5β1 (all integrins))?
Its affinity for integrins is “no or very low affinity”.

And the Ki [4]?
The Ki was greater than 10 µM.

What about the Ki [5] of the same molecule?
The Ki was greater than 10 µM.

What about the Ki [6] of the same molecule?
The Ki was greater than 10 µM.

And the “+1 Da deamidation product (DGR/isoDGR)” value [7]?
Its value is “observed”.

What about the “-17 Da form still present” value [7] of the same molecule?
Its value is “not”.
